Data on 24 compounds can be found in ChEMBL document CHEMBL5291721, “A preclinical secondary pharmacology resource illuminates target-adverse drug reaction associations of marketed drugs” (Nat Commun, 2023).

Molecules are shown by their SMILES. Where only a bound is given, the exact number is not on record here.

For experiment [1], the target named is T1, 5-hydroxytryptamine receptor 2A (Homo sapiens, UniProt P28223). In kind it is functional, cell-based.
The next experiment concerns the target T2, Estrogen receptor (Homo sapiens, UniProt P03372).
T2 sequence (P03372 whole entry): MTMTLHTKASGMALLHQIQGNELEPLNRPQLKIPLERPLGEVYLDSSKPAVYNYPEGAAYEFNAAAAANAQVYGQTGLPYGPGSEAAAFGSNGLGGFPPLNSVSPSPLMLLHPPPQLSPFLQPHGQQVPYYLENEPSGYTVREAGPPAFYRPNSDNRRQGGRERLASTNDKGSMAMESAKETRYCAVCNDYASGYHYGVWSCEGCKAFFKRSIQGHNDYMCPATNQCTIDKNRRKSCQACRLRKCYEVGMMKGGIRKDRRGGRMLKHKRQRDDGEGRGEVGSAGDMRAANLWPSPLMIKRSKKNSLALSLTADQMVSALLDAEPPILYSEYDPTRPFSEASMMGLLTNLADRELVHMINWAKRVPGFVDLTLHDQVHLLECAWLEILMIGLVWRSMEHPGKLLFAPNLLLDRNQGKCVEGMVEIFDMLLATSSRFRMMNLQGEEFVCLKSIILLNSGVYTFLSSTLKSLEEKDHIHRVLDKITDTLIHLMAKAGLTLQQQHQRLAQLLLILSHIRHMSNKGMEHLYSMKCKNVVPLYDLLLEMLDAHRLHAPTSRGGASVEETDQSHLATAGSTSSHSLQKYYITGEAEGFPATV

Experiment [2] has as its target T1, 5-hydroxytryptamine receptor 2A. Format: functional, cell-based. This is another data set of the same source.
Experiment [3] addresses Muscarinic acetylcholine receptor M3 (Homo sapiens, UniProt P20309).
For experiment [4], the target named is Gamma-aminobutyric acid receptor subunit alpha-1/alpha-2/beta-2/gamma-2 (Homo sapiens, UniProt P14867+P18507+P47869+P47870). In kind it is functional, cell-based.
Chain of Gamma-aminobutyric acid receptor subunit alpha-1/alpha-2/beta-2/gamma-2 (P14867 whole entry): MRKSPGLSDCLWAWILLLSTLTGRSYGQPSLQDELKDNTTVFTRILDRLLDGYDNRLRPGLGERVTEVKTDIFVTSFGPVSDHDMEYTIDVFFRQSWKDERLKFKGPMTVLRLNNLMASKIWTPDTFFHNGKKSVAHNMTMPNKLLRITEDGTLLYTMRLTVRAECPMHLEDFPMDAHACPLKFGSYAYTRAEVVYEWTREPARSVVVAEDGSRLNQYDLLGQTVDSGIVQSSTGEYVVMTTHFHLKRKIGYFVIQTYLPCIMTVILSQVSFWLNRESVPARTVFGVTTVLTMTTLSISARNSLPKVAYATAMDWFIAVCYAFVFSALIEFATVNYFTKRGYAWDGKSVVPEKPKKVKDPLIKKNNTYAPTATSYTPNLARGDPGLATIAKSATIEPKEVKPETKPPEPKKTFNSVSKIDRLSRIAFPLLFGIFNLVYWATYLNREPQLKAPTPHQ
Chain of Gamma-aminobutyric acid receptor subunit alpha-1/alpha-2/beta-2/gamma-2 (P47870 whole entry): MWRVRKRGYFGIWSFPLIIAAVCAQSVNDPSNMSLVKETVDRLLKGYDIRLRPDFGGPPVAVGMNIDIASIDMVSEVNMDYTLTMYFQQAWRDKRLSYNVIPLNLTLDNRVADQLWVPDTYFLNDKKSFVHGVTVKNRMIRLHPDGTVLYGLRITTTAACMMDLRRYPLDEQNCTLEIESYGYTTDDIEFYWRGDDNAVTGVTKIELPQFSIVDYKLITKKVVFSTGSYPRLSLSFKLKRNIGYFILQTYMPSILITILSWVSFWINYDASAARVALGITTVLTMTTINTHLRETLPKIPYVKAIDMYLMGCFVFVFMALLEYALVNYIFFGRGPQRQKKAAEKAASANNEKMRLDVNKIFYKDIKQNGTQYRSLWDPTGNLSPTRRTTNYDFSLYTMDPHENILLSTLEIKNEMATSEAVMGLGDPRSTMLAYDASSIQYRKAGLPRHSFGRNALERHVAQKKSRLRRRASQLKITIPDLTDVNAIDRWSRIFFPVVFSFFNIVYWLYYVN
Chain of Gamma-aminobutyric acid receptor subunit alpha-1/alpha-2/beta-2/gamma-2 (P18507 whole entry): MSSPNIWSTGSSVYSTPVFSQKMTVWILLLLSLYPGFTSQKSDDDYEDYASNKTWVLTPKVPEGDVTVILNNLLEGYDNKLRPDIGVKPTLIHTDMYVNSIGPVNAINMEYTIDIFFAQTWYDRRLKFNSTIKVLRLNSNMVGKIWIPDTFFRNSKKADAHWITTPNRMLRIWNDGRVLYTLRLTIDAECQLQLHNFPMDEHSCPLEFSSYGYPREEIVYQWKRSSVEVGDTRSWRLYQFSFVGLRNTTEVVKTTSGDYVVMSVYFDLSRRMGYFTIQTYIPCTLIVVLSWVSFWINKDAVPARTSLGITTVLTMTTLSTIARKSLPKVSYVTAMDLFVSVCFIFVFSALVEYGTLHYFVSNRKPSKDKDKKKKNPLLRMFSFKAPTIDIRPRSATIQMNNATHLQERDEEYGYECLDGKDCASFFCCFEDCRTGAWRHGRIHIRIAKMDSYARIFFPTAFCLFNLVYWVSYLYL
Chain of Gamma-aminobutyric acid receptor subunit alpha-1/alpha-2/beta-2/gamma-2 (P47869 whole entry): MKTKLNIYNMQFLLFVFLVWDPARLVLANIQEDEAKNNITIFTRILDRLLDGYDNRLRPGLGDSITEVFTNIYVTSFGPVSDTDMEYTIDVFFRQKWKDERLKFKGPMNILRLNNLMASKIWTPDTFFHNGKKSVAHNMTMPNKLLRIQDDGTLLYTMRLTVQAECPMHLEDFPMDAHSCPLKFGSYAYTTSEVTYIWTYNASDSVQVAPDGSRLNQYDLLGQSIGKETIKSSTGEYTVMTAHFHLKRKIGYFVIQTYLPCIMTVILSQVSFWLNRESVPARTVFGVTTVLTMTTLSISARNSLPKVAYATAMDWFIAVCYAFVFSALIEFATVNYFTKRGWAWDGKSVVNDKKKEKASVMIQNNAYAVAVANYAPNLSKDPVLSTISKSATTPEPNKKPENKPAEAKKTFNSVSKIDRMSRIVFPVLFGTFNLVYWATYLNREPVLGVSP
The target in experiment [5] is T3, Corticotropin-releasing factor receptor 1 (Homo sapiens, UniProt P34998).
T3 sequence (P34998 whole entry): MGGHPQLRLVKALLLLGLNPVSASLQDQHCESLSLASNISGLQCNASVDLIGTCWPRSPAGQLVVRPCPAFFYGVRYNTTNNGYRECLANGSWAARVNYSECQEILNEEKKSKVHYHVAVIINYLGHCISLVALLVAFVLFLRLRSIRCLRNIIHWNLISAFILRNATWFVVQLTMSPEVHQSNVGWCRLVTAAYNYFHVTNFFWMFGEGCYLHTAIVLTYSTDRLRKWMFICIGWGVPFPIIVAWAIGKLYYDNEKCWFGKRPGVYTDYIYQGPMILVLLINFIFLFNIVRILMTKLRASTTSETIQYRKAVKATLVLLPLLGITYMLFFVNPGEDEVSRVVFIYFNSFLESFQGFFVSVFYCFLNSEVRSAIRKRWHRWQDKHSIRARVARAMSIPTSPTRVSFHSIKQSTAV

Experiment [6] has as its target Neurotensin receptor type 1 (Homo sapiens, UniProt P30989).
In the next experiment the target is Glucagon receptor (Homo sapiens, UniProt P47871).
Experiment [7] addresses T4, 5-hydroxytryptamine receptor 1A (Homo sapiens, UniProt P08908).
T4 sequence (P08908 whole entry): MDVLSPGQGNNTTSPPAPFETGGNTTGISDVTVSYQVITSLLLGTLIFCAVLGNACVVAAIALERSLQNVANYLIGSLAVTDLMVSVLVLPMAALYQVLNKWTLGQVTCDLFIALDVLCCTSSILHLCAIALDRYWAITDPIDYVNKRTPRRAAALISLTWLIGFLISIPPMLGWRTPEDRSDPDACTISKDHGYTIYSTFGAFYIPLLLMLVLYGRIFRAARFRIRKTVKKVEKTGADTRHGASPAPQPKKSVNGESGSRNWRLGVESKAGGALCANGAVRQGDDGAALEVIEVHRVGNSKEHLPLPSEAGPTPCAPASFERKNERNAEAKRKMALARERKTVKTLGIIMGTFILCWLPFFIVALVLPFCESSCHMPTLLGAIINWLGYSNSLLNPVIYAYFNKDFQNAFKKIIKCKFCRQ

For experiment [8], the target named is T5, Gastric inhibitory polypeptide receptor (Homo sapiens, UniProt P48546).
T5 sequence (P48546 whole entry): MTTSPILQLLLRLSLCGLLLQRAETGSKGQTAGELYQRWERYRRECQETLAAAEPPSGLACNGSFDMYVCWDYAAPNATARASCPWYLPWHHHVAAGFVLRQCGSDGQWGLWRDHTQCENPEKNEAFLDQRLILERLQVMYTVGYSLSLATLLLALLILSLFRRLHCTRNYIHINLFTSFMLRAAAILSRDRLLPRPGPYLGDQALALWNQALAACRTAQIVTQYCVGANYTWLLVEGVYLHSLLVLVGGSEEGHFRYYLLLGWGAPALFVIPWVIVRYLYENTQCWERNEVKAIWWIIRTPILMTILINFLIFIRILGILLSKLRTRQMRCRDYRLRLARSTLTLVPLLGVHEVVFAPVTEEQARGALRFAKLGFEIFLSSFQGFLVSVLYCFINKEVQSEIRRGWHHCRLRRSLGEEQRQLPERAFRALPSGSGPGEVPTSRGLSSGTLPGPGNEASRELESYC

For experiment [9], the target named is Voltage-dependent N-type calcium channel subunit alpha-1B (Rattus norvegicus, UniProt Q02294). Format: functional.
Chain of Voltage-dependent N-type calcium channel subunit alpha-1B (Q02294 whole entry): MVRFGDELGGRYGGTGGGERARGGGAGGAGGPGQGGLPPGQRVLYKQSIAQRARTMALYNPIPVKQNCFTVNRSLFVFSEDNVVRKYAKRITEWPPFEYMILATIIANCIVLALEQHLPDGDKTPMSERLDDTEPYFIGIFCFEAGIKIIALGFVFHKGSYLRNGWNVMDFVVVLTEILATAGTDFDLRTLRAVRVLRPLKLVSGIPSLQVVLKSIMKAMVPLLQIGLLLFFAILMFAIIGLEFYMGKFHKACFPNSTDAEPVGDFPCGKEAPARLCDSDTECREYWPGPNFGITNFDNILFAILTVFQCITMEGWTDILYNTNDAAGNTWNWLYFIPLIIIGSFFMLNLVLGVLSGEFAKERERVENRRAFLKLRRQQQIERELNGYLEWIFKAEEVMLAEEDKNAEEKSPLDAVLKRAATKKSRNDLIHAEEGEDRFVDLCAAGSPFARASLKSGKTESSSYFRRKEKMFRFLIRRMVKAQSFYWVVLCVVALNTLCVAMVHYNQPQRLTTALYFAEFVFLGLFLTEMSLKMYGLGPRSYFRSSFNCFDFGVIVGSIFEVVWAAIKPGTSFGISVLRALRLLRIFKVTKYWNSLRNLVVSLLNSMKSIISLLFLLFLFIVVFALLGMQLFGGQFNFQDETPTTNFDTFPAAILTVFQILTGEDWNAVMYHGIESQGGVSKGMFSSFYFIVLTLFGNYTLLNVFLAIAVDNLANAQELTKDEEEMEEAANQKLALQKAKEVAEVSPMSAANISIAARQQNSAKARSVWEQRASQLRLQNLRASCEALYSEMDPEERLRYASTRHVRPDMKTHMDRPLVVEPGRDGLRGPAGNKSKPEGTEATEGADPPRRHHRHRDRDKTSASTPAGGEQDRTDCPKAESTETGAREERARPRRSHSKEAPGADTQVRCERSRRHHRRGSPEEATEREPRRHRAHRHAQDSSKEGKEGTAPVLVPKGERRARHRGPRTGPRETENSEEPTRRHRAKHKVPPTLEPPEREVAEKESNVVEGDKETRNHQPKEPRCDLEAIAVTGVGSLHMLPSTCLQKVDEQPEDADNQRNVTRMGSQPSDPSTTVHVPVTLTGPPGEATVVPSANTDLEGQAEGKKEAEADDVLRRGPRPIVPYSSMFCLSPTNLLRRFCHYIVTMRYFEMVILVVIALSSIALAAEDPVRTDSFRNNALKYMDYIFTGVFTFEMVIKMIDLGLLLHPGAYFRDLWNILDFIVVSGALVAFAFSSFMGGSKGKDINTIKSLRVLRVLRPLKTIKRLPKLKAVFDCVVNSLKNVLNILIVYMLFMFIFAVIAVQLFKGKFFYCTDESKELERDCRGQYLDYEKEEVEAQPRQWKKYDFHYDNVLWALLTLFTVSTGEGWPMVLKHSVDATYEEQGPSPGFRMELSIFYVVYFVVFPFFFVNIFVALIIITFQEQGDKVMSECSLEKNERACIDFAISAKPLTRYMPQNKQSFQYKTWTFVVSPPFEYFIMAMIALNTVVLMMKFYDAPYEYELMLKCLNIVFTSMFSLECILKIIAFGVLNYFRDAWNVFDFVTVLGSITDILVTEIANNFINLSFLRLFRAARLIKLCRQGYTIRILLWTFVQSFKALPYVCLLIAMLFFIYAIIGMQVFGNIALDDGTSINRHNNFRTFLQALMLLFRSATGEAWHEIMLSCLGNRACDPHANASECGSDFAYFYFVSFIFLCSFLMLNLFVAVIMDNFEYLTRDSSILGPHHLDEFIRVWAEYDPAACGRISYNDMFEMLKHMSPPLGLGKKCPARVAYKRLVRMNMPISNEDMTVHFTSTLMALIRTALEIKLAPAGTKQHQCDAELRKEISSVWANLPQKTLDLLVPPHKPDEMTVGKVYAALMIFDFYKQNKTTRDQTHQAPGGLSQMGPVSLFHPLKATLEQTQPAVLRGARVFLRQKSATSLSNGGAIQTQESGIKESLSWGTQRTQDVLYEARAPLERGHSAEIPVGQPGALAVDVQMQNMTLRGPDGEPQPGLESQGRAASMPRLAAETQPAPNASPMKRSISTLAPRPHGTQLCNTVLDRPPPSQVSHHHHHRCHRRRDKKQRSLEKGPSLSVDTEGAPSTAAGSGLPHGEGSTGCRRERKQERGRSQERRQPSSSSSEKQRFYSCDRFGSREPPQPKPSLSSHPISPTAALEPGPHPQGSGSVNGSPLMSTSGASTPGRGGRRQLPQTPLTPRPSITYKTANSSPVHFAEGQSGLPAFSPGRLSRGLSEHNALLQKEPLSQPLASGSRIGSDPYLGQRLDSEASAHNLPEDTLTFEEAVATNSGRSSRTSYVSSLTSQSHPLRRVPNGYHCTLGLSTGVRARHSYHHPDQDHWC
Note: assay procedure not described here.

Chain of Muscarinic acetylcholine receptor M3 (P20309 whole entry): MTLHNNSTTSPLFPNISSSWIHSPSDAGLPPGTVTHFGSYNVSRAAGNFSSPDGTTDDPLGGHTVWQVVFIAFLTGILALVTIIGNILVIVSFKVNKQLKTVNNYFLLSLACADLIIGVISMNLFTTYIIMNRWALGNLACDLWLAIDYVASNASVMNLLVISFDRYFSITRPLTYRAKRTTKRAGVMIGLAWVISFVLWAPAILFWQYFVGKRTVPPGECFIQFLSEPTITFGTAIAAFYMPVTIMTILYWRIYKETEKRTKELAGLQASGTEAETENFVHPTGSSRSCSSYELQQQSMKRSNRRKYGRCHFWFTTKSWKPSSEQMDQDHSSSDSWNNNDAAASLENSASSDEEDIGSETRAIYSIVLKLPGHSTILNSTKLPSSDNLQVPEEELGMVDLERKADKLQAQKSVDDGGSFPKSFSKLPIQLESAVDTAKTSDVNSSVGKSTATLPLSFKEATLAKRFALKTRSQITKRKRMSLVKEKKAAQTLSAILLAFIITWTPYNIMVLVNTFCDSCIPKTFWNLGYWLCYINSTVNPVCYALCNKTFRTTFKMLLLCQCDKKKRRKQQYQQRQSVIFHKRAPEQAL

As usually defined, the AC50 is the midpoint of the concentration-response curve, whichever way the signal moves. For `CC(=O)Nc1ccc(CC(=O)O)cc1` [ACTARIT], the AC50 (in experiment [1]; on Estrogen receptor; in experiment [2]; in experiment [3]) was > 30 µM in each case.

As for `CC(C(=O)O)c1ccc2oc(-c3ccc(Cl)cc3)nc2c1` (configuration not stated) [BENOXAPROFEN], the AC50 on Estrogen receptor is > 30 µM.

For the compound `CC=CC1=C(C(=O)O)N2C(=O)[C@@H](NC(=O)[C@H](N)c3ccc(O)cc3)[C@H]2SC1` [CEFPROZIL], the AC50 (in experiment [1]; on Estrogen receptor; in experiment [2]; in [3]) was > 30 µM each time.

For `CC(C)NC(=N)NC(=N)Nc1ccc(Cl)c(Cl)c1` [CHLORPROGUANIL], the AC50 in [1] is > 30 µM; in experiment [4], > 30 µM; in experiment [2] it was 3.6 µM; in [3] it was > 30 µM.

`CCCNC(=O)NS(=O)(=O)c1ccc(Cl)cc1` [CHLORPROPAMIDE]: the half-maximal activity concentration (AC50) in experiment [5] is > 30 µM; in [6], > 30 µM; on Estrogen receptor it was > 30 µM; at Glucagon receptor, > 30 µM; in experiment [7], > 10 µM; in [8], > 30 µM. For the same compound, in experiment [9], the half-maximal activity concentration (AC50) is > 10 µM.

As for `C[N+](C)(C)CCOP(=O)(O)OP(=O)([O-])OC[C@H]1O[C@@H](n2ccc(N)nc2=O)[C@H](O)[C@@H]1O` [CITICOLINE], the AC50 in [1], in experiment [4], in experiment [2] and in experiment [3] was > 30 µM each time.

In the case of `Cc1nc(Nc2ncc(C(=O)Nc3c(C)cccc3Cl)s2)cc(N2CCN(CCO)CC2)n1` [DASATINIB], the concentration at half-maximal activity (AC50) is > 10 µM at Glucagon receptor, 21.9 µM in [7], > 30 µM in experiment [3] and > 10 µM in [9].

With `CC(C)Cc1ccc([C@H](C)C(=O)O)cc1` [DEXIBUPROFEN], in [4], the AC50 is > 30 µM.

On to `O=C(O)Cc1ccccc1Nc1c(Cl)cccc1Cl` [DICLOFENAC], for which the AC50 in [5] is > 30 µM; in experiment [6], > 30 µM; on Glucagon receptor, > 30 µM; in experiment [7] it was > 10 µM; in experiment [8], > 30 µM; in experiment [9] it was > 10 µM.

Turning to `O=C(O)Cc1ccccc1Oc1ccc(Cl)cc1Cl` [FENCLOFENAC], the concentration at half-maximal activity (AC50) is > 30 µM in experiment [5]; > 30 µM in experiment [6]; > 30 µM on Estrogen receptor; > 30 µM on Glucagon receptor; > 10 µM in experiment [7]; > 30 µM in experiment [8]. The AC50 in [3] and in experiment [9] was > 10 µM each time.

Regarding `Cc1ccc(C)c(OCCCC(C)(C)C(=O)O)c1` [GEMFIBROZIL], the concentration at half-maximal activity (AC50) in experiment [5] was > 30 µM; in [6] it was > 30 µM; on Estrogen receptor, > 30 µM; at Glucagon receptor, > 30 µM; in experiment [7] it was > 10 µM; in experiment [8], > 30 µM. Besides, the concentration at half-maximal activity (AC50) in experiment [9] was > 10 µM.

Consider `COc1ccccc1OC1(C)OC(=O)c2ccccc2O1` (configuration not stated) [GUAIMESAL], for which, on Estrogen receptor, the AC50 was > 30 µM.

For `CCCCCCCN(CC)CCCC(O)c1ccc(NS(C)(=O)=O)cc1` (configuration not stated) [IBUTILIDE], the AC50 in [1] was > 30 µM; in [2], 25 µM; in [3] it was 21 µM.

Regarding `CC[C@H](C)C(=O)O[C@H]1C[C@@H](C)C=C2C=C[C@H](C)[C@H](CC[C@@H]3C[C@@H](O)CC(=O)O3)[C@H]21` [LOVASTATIN], the AC50 was > 30 µM in experiment [5]; > 30 µM in experiment [6]; > 30 µM on Estrogen receptor; > 30 µM on Glucagon receptor; > 10 µM in experiment [7]; > 30 µM in experiment [8]. The half-maximal activity concentration (AC50) in experiment [9] was > 10 µM.

`CC[C@@H](CO)NC(=O)[C@@H]1C=C2c3cccc4c3c(cn4C)C[C@H]2N(C)C1` [METHYSERGIDE]: the AC50 is > 30 µM in [5]; > 30 µM in experiment [6]; > 10 µM on Estrogen receptor; > 30 µM on Glucagon receptor; 0.192 µM in experiment [7]; > 30 µM in [8]. Also, the AC50 in [9] is > 10 µM.

With `CN1Cc2c(N)cccc2C(c2ccccc2)C1` (configuration not stated) [NOMIFENSINE], the AC50 in experiment [1] was > 30 µM; in experiment [4] it was > 30 µM; in experiment [2], 15 µM; in [3], > 30 µM.

Turning to `CC(CN1c2ccccc2Sc2ccccc21)N(C)C` (configuration not stated) [PROMETHAZINE], the concentration at half-maximal activity (AC50) in [5] is > 30 µM; in experiment [6] it was > 30 µM; at Glucagon receptor, > 30 µM; in experiment [7] it was 6.7 µM; in experiment [8], > 30 µM; in [9], > 10 µM.

As for `CCCc1cc(=O)[nH]c(=S)[nH]1` [PROPYLTHIOURACIL], on Estrogen receptor, the AC50 was > 10 µM.

Turning to `Cn1cc(C(=O)[C@@H]2CCc3nc[nH]c3C2)c2ccccc21` [RAMOSETRON], the AC50 (in experiment [1]; at Estrogen receptor; in [2]; in experiment [3]) was > 30 µM in each case.

With `CN(CCOc1ccc(CC2SC(=O)NC2=O)cc1)c1ccccn1` (configuration not stated) [ROSIGLITAZONE], the AC50 was > 30 µM in experiment [5]; > 30 µM in experiment [6]; > 30 µM on Estrogen receptor; > 30 µM on Glucagon receptor; > 10 µM in experiment [7]; > 30 µM in experiment [8]. For the same compound, in experiment [9], the concentration at half-maximal activity (AC50) was > 10 µM.

Consider `CC(C)C[C@H](NC(=O)[C@@H](O)[C@H](N)Cc1ccccc1)C(=O)O` [UBENIMEX], for which the AC50 at Estrogen receptor is > 30 µM.

As for `CC(C)[C@H](N)C(=O)OCCOCn1cnc2c(=O)[nH]c(N)nc21` [VALACYCLOVIR], the concentration at half-maximal activity (AC50) was > 30 µM in [5]; > 30 µM in experiment [6]; > 30 µM at Estrogen receptor; > 30 µM at Glucagon receptor; > 10 µM in experiment [7]; > 30 µM in experiment [8]. In addition, the concentration at half-maximal activity (AC50) in experiment [9] is > 10 µM.

As to `COc1cc(C(=O)NS(=O)(=O)c2ccccc2C)ccc1Cc1cn(C)c2ccc(NC(=O)OC3CCCC3)cc12` [ZAFIRLUKAST], the AC50 at Estrogen receptor is > 30 µM.

For `O=C1Cc2cc(CCN3CCN(c4nsc5ccccc45)CC3)c(Cl)cc2N1` [ZIPRASIDONE], the concentration at half-maximal activity (AC50) is > 30 µM in experiment [5]; > 30 µM in experiment [6]; > 30 µM on Estrogen receptor; > 30 µM on Glucagon receptor; 0.008 µM in experiment [7]; > 30 µM in [8]. Moreover, the half-maximal activity concentration (AC50) in experiment [3] and in experiment [9] was > 10 µM throughout.
